Results from patent US5530161A, “Hydroxamic acid based collagenase inhibitors” (priority 1994, dated 1996).

Key:
stromelysin = stromelysin (Homo sapiens, UniProt P08254); assay: Stromelysin inhibition activity (14C-acetylated casein digestion, Cawston et al); format: biochemical
collagenase = target: T1, collagenase (Homo sapiens, UniProt P03956); settings: for IC50: collagenase, 37°, 16 hours, pH 7.5, 14C collagen
T1 sequence (P03956 100-469): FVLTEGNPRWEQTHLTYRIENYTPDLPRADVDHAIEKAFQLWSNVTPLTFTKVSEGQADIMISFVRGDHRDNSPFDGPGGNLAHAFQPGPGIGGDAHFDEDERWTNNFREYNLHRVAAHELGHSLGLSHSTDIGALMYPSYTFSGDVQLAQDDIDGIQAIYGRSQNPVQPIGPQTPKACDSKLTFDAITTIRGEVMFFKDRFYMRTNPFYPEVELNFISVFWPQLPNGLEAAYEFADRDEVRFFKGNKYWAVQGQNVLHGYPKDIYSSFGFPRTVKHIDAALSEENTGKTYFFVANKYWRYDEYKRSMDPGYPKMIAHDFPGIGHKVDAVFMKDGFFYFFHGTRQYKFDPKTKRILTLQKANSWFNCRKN
Excerpt: The collagen was acetylated ^14 C collagen prepared by the method of Cawston and Murphy (Methods in Enzymology, 80, 711, 1981), hereby incorporated by reference. The samples were centrifuged to sediment undigested collagen and an aliquot of the radioactive supernatant removed for assay on a scintillation counter as a measure of hydrolysis.

Sequence of stromelysin (P08254 100-477): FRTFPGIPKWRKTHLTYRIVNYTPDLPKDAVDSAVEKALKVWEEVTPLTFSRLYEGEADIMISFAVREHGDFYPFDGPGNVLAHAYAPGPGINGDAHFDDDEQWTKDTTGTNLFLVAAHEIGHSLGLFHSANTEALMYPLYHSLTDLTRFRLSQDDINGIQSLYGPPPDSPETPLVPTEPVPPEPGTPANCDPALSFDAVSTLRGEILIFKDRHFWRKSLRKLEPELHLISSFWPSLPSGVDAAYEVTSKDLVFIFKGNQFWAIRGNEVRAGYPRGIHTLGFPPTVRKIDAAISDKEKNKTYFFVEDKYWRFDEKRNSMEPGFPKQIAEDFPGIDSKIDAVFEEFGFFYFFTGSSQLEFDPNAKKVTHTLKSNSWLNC

SMILES	IC50 (stromelysin; stromelysin, 37°, 16 hours, pH 7.5, 14C acetylated casein)	IC50 (collagenase)	protoglycanase-inhibiting activity (in words) (stromelysin; qualitative statement, protoglycanase = stromelysin (b9))	collagenase-inhibiting activity (in words) (collagenase; qualitative statement)
CNC(=O)[C@H](Cc1ccccc1)NC(=O)[C@H](CC(C)C)[C@H](CSc1ccccc1)C(=O)NO [Example 1, [4-(N-Hydroxyamino)-2R-isobutyl-3S-(phenylthiomethyl)-succinyl]-L-phenylalanine-N-methylamide]	10 nM	20 nM		
CNC(=O)[C@H](Cc1ccccc1)NC(=O)[C@H](CC(C)C)[C@H](CSc1cccs1)C(=O)NO [Example 2, [4-(N-Hydroxyamino)-2R-isobutyl-3S-(thienylthiomethyl)succinyl]-L-phenylalanine-N-methylamide]			good	good
CNC(=O)[C@H](Cc1ccccc1)NC(=O)[C@H](CC(C)C)[C@H](CS)C(=O)NO [Example 5, [4-(N-Hydroxyamino)-2R-isobutyl-3S-(mercaptomethyl)succinyl]-L-phenylalanine-N-methylamide]		3 nM		
